The subject of experiment [1] is Glomerella lagenarium (Colletotrichum lagenarium). Briefly: Fungicidal activity against Glomerella lagenarium (Colletotrichum lagenarium) liquid culture / cucumber / preventative (anthracnose). It counts as cell-based. The following applies: Colletotrichum orbiculare; 20 ppm in the applied formulation; liquid culture (PDB), growth inhibition measured photometrically after 3 to 4 days; compared to untreated control; read-out: disease control. The method in brief: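 Photometric read-out of fungal growth after 2–7 days, expressed as percent antifungal activity versus untreated check. Cryo-stored conidia in PDB; compound at 20 ppm; dark, 24 °C, 96% RH.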

In another experiment the test system is Phakopsora Pachyrhizi. In words: Fungicidal activity against Phakopsora pachyrhizi / soybean / leaf disc preventative (Asian soybean rust). Format: in vivo. The conditions noted are these: foliar, 200 ppm in the applied formulation, soybean leaf disks, compared to untreated control leaf disks, read-out: disease control. The procedure:
Leaf disks or leaf segments of various plant species are cut from plants grown in a greenhouse. The cut leaf disks or segments are placed in multiwell plates (24-well format) onto water agar. The leaf disks are sprayed with a test solution before (preventative) or after (curative) inoculation. Compounds to be tested are prepared as DMSO solutions (max. 10 mg/ml) which are diluted to the appropriate concentration with 0.025% Tween20 just before spraying. The inoculated leaf disks or segments are incubated under defined conditions (temperature, relative humidity, light, etc.) according to the respective test system. A single evaluation of disease level is carried out 3 to 14 days after inoculation, depending on the pathosystem. Percent disease control relative to the untreated check leaf disks or segments is then calculated.
Fungicidal Activity Against Phakopsora Pachyrhizi Soybean/Leaf Disc Preventative (Asian Soybean Rust)
Soybean leaf disks are placed on water agar in multiwell plates (24-well format) and sprayed with the formulated test compound diluted in water. One day after application leaf discs are inoculated by spraying a spore suspension on the lower leaf surface. After an incubation period in a climate cabinet of 24-36 hours in darkness at 20° C. and 75% rh leaf disc are kept at 20° C. with 12 h light/day and 75% rh. The activity of a compound is assessed as percent disease control compared to untreated when an appropriate level of disease damage appears in untreated check leaf disks (12 to 14 days after application).
The following compounds at 200 ppm in the applied formulation give at least 80% disease control in this test when compared to untreated control leaf disks under the same conditions, which show extensive disease development.

Inhibition of growth and pest or weed control data for 20 molecules are collected here from patent publication US11180462B2, “Microbiocidal oxadiazole derivatives” (SYNGENTA PARTICIPATIONS AG, priority 2015, dated 2021).

As to `CC1CC1C(=O)N(Cc1ccc(-c2noc(C(F)(F)F)n2)cc1)CC(F)(F)F` (stereo not drawn) [Compound 1.695, 2-methyl-N-(2,2,2-trifluoroethyl)-N-[[4-[5-(trifluoromethyl)-1,2,4-oxadiazol-3-yl]phenyl]methyl]-cyclopropane-carboxamide], the inhibition of growth at 20 ppm in experiment [1] was not below 80%. Moreover, the pest or weed control at 200 ppm in the experiment with Phakopsora Pachyrhizi was not below 80%.

As to `CCCCON(Cc1ccc(-c2noc(C(F)(F)F)n2)cc1)C(=O)C1(C#N)CC1` [Compound 1.646, N-butoxy-1-cyano-N-[[4-[5-(trifluoromethyl)-1,2,4-oxadiazol-3-yl]phenyl]methyl]-cyclopropane-carboxamide], the inhibition of growth at 20 ppm in experiment [1] was not below 80%. Besides, the pest or weed control at 200 ppm in the experiment on Phakopsora Pachyrhizi was not below 80%.

For the molecule `CCCCON(Cc1ccc(-c2noc(C(F)(F)F)n2)cc1)C(=O)C1CC1(F)F` (stereo not drawn) [Compound 1.634, N-butoxy-2,2-difluoro-N-[[4-[5-(trifluoromethyl)-1,2,4-oxadiazol-3-yl]phenyl]methyl]-cyclopropane-carboxamide], the inhibition of growth at 20 ppm in experiment [1] was not below 80%. The pest or weed control at 200 ppm in the experiment with Phakopsora Pachyrhizi is not below 80%.

For the molecule `CCCN(Cc1ccc(-c2noc(C(F)(F)F)n2)cc1)C(=O)c1ccccc1Cl` [Compound 1.653, 2-chloro-N-propyl-N-[[4-[5-(trifiuoromethyl)-1,2,4-oxadiazol-3-yl]phenyl]methyl]-benzamide], the inhibition of growth at 20 ppm in experiment [1] was not below 80%. Besides, in the experiment with Phakopsora Pachyrhizi, the pest or weed control at 200 ppm was not below 80%.

Regarding `CCCCON(Cc1ccc(-c2noc(C(F)(F)F)n2)cc1)C(=O)CC#N` [Compound 1.645, N-butoxy-2-cyano-N-[[4-[5-(trifluoromethyl)-1,2,4-oxadiazol-3-yl]phenyl]methyl]-acetamide], in experiment [1], the inhibition of growth at 20 ppm is not below 80%. Further, in the experiment with Phakopsora Pachyrhizi, the pest or weed control at 200 ppm is not below 80%.

Consider `CCC(C)C(=O)N(Cc1ccc(-c2noc(C(F)(F)F)n2)cc1)CC(F)(F)F` (stereo not drawn) [Compound 1.697, 2-methyl-N-(2,2,2-trifluoroethyl)-N-[[4-[5-(trifluoromethyl)-1,2,4-oxadiazol-3-yl]phenyl]methyl]-butanamide], for which the inhibition of growth at 20 ppm in experiment [1] was not below 80%. The pest or weed control at 200 ppm in the experiment on Phakopsora Pachyrhizi was not below 80%.

With `CCCCON(Cc1ccc(-c2noc(C(F)(F)F)n2)cc1)C(=O)CCCOC` [Compound 1.643, N-butoxy-4-methoxy-N-[[4-[5-(trifluoromethyl)-1,2,4-oxadiazol-3-yl]phenyl]methyl]-butanamide], the inhibition of growth at 20 ppm in experiment [1] was not below 80%. Also, in the experiment on Phakopsora Pachyrhizi, the pest or weed control at 200 ppm is not below 80%.

As to `COCCCC(=O)N(Cc1ccc(-c2noc(C(F)(F)F)n2)cc1)C1COC1` [Compound 1.746, 4-methoxy-N-(oxetan-3-yl)-N-[[4-[5-(trifluoromethyl)-1,2,4-oxadiazol-3-yl]phenyl]methyl]-butanamide], the pest or weed control at 200 ppm with Phakopsora Pachyrhizi was not below 80%.

For `C#CCOC(=O)NC(C(=O)N(Cc1ccc(-c2noc(C(F)(F)F)n2)cc1)CC1CC1)C(C)C` (stereo not drawn) [Compound 1.241, prop-2-ynyl N-[1-(cyclopropylmethyl-[[4-[5-(trifluoromethyl)-1,2,4-oxadiazol-3-yl]phenyl]methyl]-carbamoyl]-2-methyl-propyl]carbamate], the pest or weed control at 200 ppm in the experiment on Phakopsora Pachyrhizi was not below 80%.

With `O=C(CC1CC1)N(Cc1ccc(-c2noc(C(F)(F)F)n2)cc1)CC(F)(F)F` [Compound 1.706, 2-cyclopropyl-N-(2,2,2-trifluoroethyl)-N-[[4-[5-(trifluoromethyl)-1,2,4-oxadiazol-3-yl]phenyl]methyl]-acetamide], in experiment [1], the inhibition of growth at 20 ppm is not below 80%. Moreover, the pest or weed control at 200 ppm in the experiment with Phakopsora Pachyrhizi was not below 80%.

`CC(C)(C)CC(=O)N(Cc1ccc(-c2noc(C(F)(F)F)n2)cc1)CC1CC1` [Compound 1.224, N-(cyclopropylmethyl)-3,3-dimethyl-N-[[4-[5-(trifluoromethyl)-1,2,4-oxadiazol-3-yl]phenyl]methyl]-butanamide]: the inhibition of growth at 20 ppm in experiment [1] was not below 80%. Besides, the pest or weed control at 200 ppm with Phakopsora Pachyrhizi is not below 80%.

As for `O=C(CC1CCCC1)N(Cc1ccc(-c2noc(C(F)(F)F)n2)cc1)C1CC1` [Compound 1.84, 2-cyclopentyl-N-cyclopropyl-N-[[4-[5-(trifluoromethyl)-1,2,4-oxadiazol-3-yl]phenyl]methyl]-acetamide], the inhibition of growth at 20 ppm in experiment [1] is not below 80%. Besides, in the experiment on Phakopsora Pachyrhizi, the pest or weed control at 200 ppm was not below 80%.

Take `CCCCON(Cc1ccc(-c2noc(C(F)(F)F)n2)cc1)C(=O)CC(F)(F)F` [Compound 1.648, N-butoxy-3,3,3-trifluoro-N-[[4-[5-(trifluoromethyl)-1,2,4-oxadiazol-3-yl]phenyl]methyl]-propanamide]: the inhibition of growth at 20 ppm in experiment [1] is not below 80%. The pest or weed control at 200 ppm in the experiment with Phakopsora Pachyrhizi was not below 80%.

Take `O=C(ON(Cc1ccc(-c2noc(C(F)(F)F)n2)cc1)C(=O)c1ccccc1Cl)c1ccccc1Cl` [Compound 1.755, [(2-chlorobenzoyl)-[[4-[5-(trifluoromethyl)-1,2,4-oxadiazol-3-yl]phenyl]methyl]-amino] 2-chlorobenzoate]: the inhibition of growth at 20 ppm in experiment [1] was not below 80%. For the same molecule, in the experiment with Phakopsora Pachyrhizi, the pest or weed control at 200 ppm was not below 80%.

Regarding `C#CCN(Cc1ccc(-c2noc(C(F)(F)F)n2)cc1)C(=O)CC1CC1(F)F` (stereo not drawn) [Compound 1.197, 2-(2,2-difluorocyclopropyl)-N-prop-2-ynyl-N-[[4-[5-(trifluoromethyl)-1,2,4-oxadiazol-3-yl]phenyl]methyl]-acetamide], the pest or weed control at 200 ppm in the experiment on Phakopsora Pachyrhizi is not below 80%.

As for `O=C(OCCN(Cc1ccc(-c2noc(C(F)(F)F)n2)cc1)C(=O)c1ccccc1Cl)c1ccccc1Cl` [Compound 1.710, 2-[(2-chlorobenzoyl)-[[4-[5-(trifluoromethyl)-1,2,4-oxadiazol-3-yl]phenyl]methyl]-amino]ethyl 2-chlorobonzoato], in the experiment on Phakopsora Pachyrhizi, the pest or weed control at 200 ppm is not below 80%.

Consider `O=C(C1CCC1)N(Cc1ccc(-c2noc(C(F)(F)F)n2)cc1)CC(F)(F)F` [Compound 1.694, N-(2,2,2-trifluoroethyl)-N-[[4-[5-(trifluoromethyl)-1,2,4-oxadiazol-3-yl]phenyl]methyl]-cyclobutane-carboxamide], for which the inhibition of growth at 20 ppm in experiment [1] was not below 80%. Besides, in the experiment on Phakopsora Pachyrhizi, the pest or weed control at 200 ppm is not below 80%.

Take `O=C(c1ccccc1Cl)N(Cc1ccc(-c2noc(C(F)(F)F)n2)cc1)CC(F)(F)F` [Compound 1.691, 2-chloro-N-(2,2,2-trifluoroethyl)-N-[[4-[5-(trifluoromethyl)-1,2,4-oxadiazol-3-yl]phenyl]methyl]-benzamide]: the inhibition of growth at 20 ppm in experiment [1] is not below 80%. Also, the pest or weed control at 200 ppm in the experiment on Phakopsora Pachyrhizi is not below 80%.

With `O=C(CC(F)(F)F)N(Cc1ccc(-c2noc(C(F)(F)F)n2)cc1)CC1CC1` [Compound 1.220, N-(cyclopropylmethyl)-3,3,3-trifluoro-N-[[4-[5-(trifluoromethyl)-1,2,4-oxadiazol-3-yl]phenyl]methyl]-propanamide], the inhibition of growth at 20 ppm in experiment [1] is not below 80%. In the experiment with Phakopsora Pachyrhizi, the pest or weed control at 200 ppm was not below 80%.

As for `O=C(C1CC1)N(Cc1ccc(-c2noc(C(F)(F)F)n2)cc1)CC1CC1` [Compound 1.246, N-(cyclopropylmethyl)-N-[[4-[5-(trifluoromethyl)-1,2,4-oxadiazol-3-yl]phenyl]methyl]-cyclopropane-carboxamide], in experiment [1], the inhibition of growth at 20 ppm was not below 80%. The pest or weed control at 200 ppm in the experiment with Phakopsora Pachyrhizi was not below 80%.
